From ChEMBL document CHEMBL3507680, “University of Dundee, Gates Library screen for HepG2 cell viability”

experiment: Human HepG2 cell viability assay in 384 well format; format: toxicity, cell-based; parameters: dose 125 nL, time 70.5 hour; cytotoxicity at 70.5 h: concentration not given beside the values; conditions: HepG2 cells, read-out: Inhibition

Row | Compound | cytotoxicity at 70.5 h [%]
1 | CN1CCCCc2c1nc1c(c2N)CCCC1 | -5.71
2 | Cc1nn(COc2cccc(F)c2)c(C)c1NC(=O)C1CC1 | 2.57
3 | Cc1c(CCC(=O)Nc2ccc(Br)cn2)cnn1C | -5.19
4 | Cc1c(CCC(=O)Nc2ccc(Cl)cn2)cnn1C | -1.57
5 | CCN(CC)C(=O)c1ccn(COc2c(Cl)cccc2Cl)n1 | -10.4
6 | CC(C)NC(=O)c1ccn(COc2c(Cl)cccc2Cl)n1 | -8.01
7 | CCn1cc(CN(C)S(=O)(=O)c2ccccc2)cn1 | -6.94
8 | Cc1cc(C(=O)NCc2ccco2)nn1C | -11.3
9 | Cc1ccc(CNC(=O)c2cc(C)n(C)n2)o1 | -8.67
10 | CCN(CC)C(=O)c1ccn(COc2cccc(Cl)c2Cl)n1 | -2.31
11 | CCn1cc(CNC(=O)C2CCCC2)cn1 | -17.8
12 | CC1CCN(C(=O)C(C)Oc2ccc3c(c2)OCO3)CC1 (stereo not given) | 8.31
13 | CC(C(=O)N1CCOCC1)n1cc(Br)cn1 (stereo not given) | 12.3
14 | CC(=O)Nc1ncc(S(=O)(=O)Nc2cccc(F)c2)s1 | -8.84
15 | COc1ccc(NS(=O)(=O)c2cnc(NC(C)=O)s2)cc1 | -8.08
16 | CC(=O)Nc1ncc(S(=O)(=O)Nc2cccc(O)c2)s1 | -13.4
17 | CC(=O)Nc1ncc(S(=O)(=O)Nc2ccc3c(c2)OCCO3)s1 | -7.83
18 | CSc1nc(N)c2c(n1)N=C1COC(O)=C1C2c1cccc(Cl)c1 (stereo not given) | 47.4
19 | Cc1ccc(NC(=O)Nc2c(O)oc3ccccc3c2=O)cc1C | -5.07
20 | O=c1c2cc3c(cc2nnn1Cc1ccccc1)OCCO3 | -2.96
21 | CCCNC(=O)c1nn(CC)cc1NC(=O)c1cn(C)nc1C | -12.7
22 | Cc1nn(C)c2c(=O)n(Cc3ccc(F)cc3)nnc12 | -7.56

Row | Compound | cytotoxicity at 70.5 h [%]
23 | CCc1nc(NCCn2cccn2)c2c(n1)c(C)nn2C | -7.14
24 | Cc1nn(C)c2c(NCc3ccccn3)nc(C(C)C)nc12 | 20.7
25 | Cc1nn(C)c2c(=O)n(C)c(NCC3CCCO3)nc12 (stereo not given) | -3.29
26 | COc1ccc(OC)c(Nc2nc3c(C)nn(C)c3c(=O)n2C)c1 | 7.63
27 | CCn1c(NCc2ccccc2)nc2c(C)nn(C)c2c1=O | -9.48
28 | c1ccc(OCCNCc2cccs2)nc1 | 7.79
29 | Fc1cccc(Cl)c1CNCCOc1ccccn1 | -20.9
30 | Cc1ccsc1CNCCCOc1ccccn1 | 1.65
31 | COc1ccc(CNc2n[nH]c(C)n2)cc1 | -11.8
32 | Cc1cccc(CNc2n[nH]c(C)n2)c1 | -5.26
33 | Cc1cc(C)cc(N2CC(c3nnc(N)s3)CC2=O)c1 (stereo not given) | 3.73
34 | Cc1c(Cl)cccc1N1CC(c2nnc(N)s2)CC1=O (stereo not given) | 5.68
35 | CCOC(=O)c1sc(NC(=O)CCCC(=O)O)c(C#N)c1C | -4.89
36 | CCn1cc(S(=O)(=O)N2CCC(C)CC2)c(C)n1 | -14
37 | O=S(=O)(c1ccc(F)cc1)n1cc(Cl)cn1 | -10.6
38 | O=C(c1c(F)cccc1F)N1CCOCC1 | 18.9
39 | CCN(Cc1ccncc1)S(C)(=O)=O | 27.1
40 | CCN1CCN(S(=O)(=O)c2cc(C)c(Cl)cc2C)CC1 | 2.46
41 | Cc1ccc(CN2CCN(CC(=O)Nc3ccc4nsnc4c3)CC2)o1 | -5.71
42 | CC(C)CCN1CCN(CC(=O)Nc2ccc3nsnc3c2)CC1 | -11.4
43 | CC1CCC2(CC1)NC(=O)c1cc(Br)ccc1-n1nnnc12 (stereo not given) | -4.82
44 | Cc1cccc(C)c1-n1nnnc1C1(NCc2ccco2)CCCC1 | -6.25

Row | Compound | cytotoxicity at 70.5 h [%]
45 | COc1ccc(-n2nnnc2C(C)(C)Nc2ccc(C)cc2C)cc1 | 40.2
46 | Cc1nc(N2CCCC2)ncc1-c1cc(O)nc(N2CCCCC2)n1 | -10.4
47 | CC(C)C(=O)N1CCC(C)(c2cc(O)[nH]n2)CC1 | 20
48 | Cc1cc(CN(C)Cc2ccccc2N2CCCCC2)n[nH]1 | 1.54
49 | COCC(=O)NC[C@H]1CC[C@H](c2nnc(-c3ccncc3)o2)CC1 | 15.8
50 | O=C(NC[C@H]1CC[C@H](c2nnc(-c3cccnc3)o2)CC1)C1CC1 | 6.18
51 | Cc1cncc(C2CCN(C(=O)c3ccc(-n4cccn4)nc3)CC2)n1 | -2.8
52 | COc1ccc2[nH]cc(C(=O)N3C[C@@H](O)[C@H](N4CCCC4)C3)c2c1 | 17.1
53 | CN1CCC(c2cccc(-c3ccc(C(=O)O)cc3)n2)CC1 | -2.41
54 | Cc1c(CN2CCCC2(C)C(=O)NC2CCCC2)cnn1C (stereo not given) | 5.02
55 | CNc1nccnc1C1CN(Cc2ccc(OCC(=O)O)cc2)CCO1 (stereo not given) | -5.37
56 | Cn1cc(CN2CCCC(c3nc(O)cc(-c4cccs4)n3)C2)cn1 (stereo not given) | -6.31
57 | COc1ccc(S(=O)(=O)N2C[C@H](OC)[C@]3(CCCO3)C2)cc1 | -16.2
58 | NC(=O)C1(Cc2ccc(-c3ccccc3)cc2)CCNC1 (stereo not given) | 36.2
59 | Cc1ccccc1CC(=O)N1C[C@@H](O)[C@H](N2CCC(F)(F)CC2)C1 | -7.85
60 | Cc1c[nH]nc1C1CCN(C(=O)C2CCOCC2)C1 (stereo not given) | 12.3
61 | NC(=O)CN1CCC(c2cccc(Oc3ccccc3)n2)CC1 | -1.34
62 | c1cc(C2CCCN2CC2CCCCC2)n[nH]1 (stereo not given) | -8.35
63 | Cc1nc(C2CCN(c3ccccc3)CC2)no1 | 8.78
64 | CC1(C(N)=O)CCCN(c2cnccn2)C1 (stereo not given) | 5.53
65 | CCN(CC)S(=O)(=O)N1CCCC1c1cccc(Nc2ncc(C)s2)n1 (stereo not given) | -11.3
66 | COCC(=O)N1CCCC1(C)c1nc(C)cc(O)n1 (stereo not given) | -10.5

Row | Compound | cytotoxicity at 70.5 h [%]
67 | CNc1nc(C2CCCN(C(=O)C(C)(C)OC)C2)nc2c1CN(C)CC2 (stereo not given) | -13.7
68 | O=C(NC1CC1)c1cc(C2CCCN(Cc3ccccn3)C2)no1 (stereo not given) | -13.3
69 | Cc1cc(C)n(CCNC(=O)c2cc(C3CC3)n[nH]2)n1 | -4.88
70 | COCCC(=O)N1CCC(c2cc3ncc(C)nc3[nH]2)CC1 | -14.7
71 | Cc1cnc(Nc2cccc(C3CCCN3C(=O)CO)n2)s1 (stereo not given) | -6.4
72 | CS(=O)(=O)N1CCC(c2ccncn2)CC1 | -10.9
73 | Cc1c(C(=O)NC2CCCOC2)nnn1-c1ccccc1 (stereo not given) | 17.4
74 | CC(C)Nc1nc(O)cc(C2CC(=O)N(Cc3ccccc3)C2)n1 (stereo not given) | -7.01
75 | COc1cccc(C(=O)N2C[C@@H](c3ccccc3)[C@@H]3NCCCC[C@@H]32)c1 | -8.79
76 | O=S(=O)(c1cn[nH]c1)N1CCCC1c1cc[nH]n1 (stereo not given) | -7.61
77 | Cn1cnc(S(=O)(=O)N2CCCC2c2cnccn2)c1 (stereo not given) | -9.6
78 | COc1ccccc1C1CCCN1CC(=O)N1CCC(C(N)=O)CC1 (stereo not given) | 22.3
79 | CN(C)c1cc(C2CCCN(S(=O)(=O)c3cn[nH]c3)C2)ccn1 (stereo not given) | -1.45
80 | CN(C)S(=O)(=O)N1CCCC(c2ccncn2)C1 (stereo not given) | -5.39
81 | O=C1CCCN1CCCC(=O)N1CCCC(c2ccn[nH]2)C1 (stereo not given) | -12
82 | O=C(O)c1ccc(CN2CCC(c3ccnc4ccnn34)CC2)cc1 | -12
83 | Cc1cnc(CN2C[C@H]3C[C@H](Oc4ccccc4)C[C@H]3C2)cn1 | 34.2
84 | COc1cc2cc(C)c(SCCN3CCCC3)nc2cc1OC | -6.08
85 | CCN1CCc2cc(-c3cncn3CC(=O)NC(C)(C)C)ccc21 | -6.27
